Measured values reported in paper PMC11125953 (Viruses, 2024).
Counter-ions that a name gives are not always drawn. Like-named read-outs stand apart in the source and are kept apart here.

Experiments:
[1] = tested on: EHV-4 405/76 reference strain; test: RTCA; assay type: cell-based, Equid herpesvirus 4; conditions: area under normalized Cell Index curves, 0-120 hpi, EHV-4-infected E. Derm cells
[2] = Cytotoxicity by impedance using RTCA; conditions: horse, E. Derm cells
[3] = tested on: EHV-4 405/76 reference strain; conditions: ratio of CC50 to EC50 obtained by qPCR
[4] = tested on: EHV-4 405/76 reference strain; test: microbe, parasite or virus in culture
[5] = tested on: EHV-4 405/76 reference strain; test: microbe, parasite or virus in culture; remark: listed apart in the source
[6] = Cytotoxicity by CellTiter-Glo; conditions: horse, E. Derm cells
[7] = tested on: EHV-4 405/76 reference strain; conditions: ratio of CC50 to EC50 obtained by RTCA

SMILES | AUCn ([1]; 0.4 µM) | AUCn ([1]; 2 µM) | AUCn ([1]; 10 µM) | AUCn ([1]; 50 µM) | CC50 [2] [µM] | SI (CC50 CellTiter-Glo/EC50 qPCR) [3] | EC50 ([4]; Equid alphaherpesvirus 4, read-out: RTCA EC50 (µM ± S.D)) [µM] | EC50 ([4]; Equid alphaherpesvirus 4, read-out: RTCA EC50 (µg/mL ± S.D)) [µg/mL] | EC50 ([5]; Equid alphaherpesvirus 4, read-out: qPCR EC50 (µM ± S.D)) [µM] | EC50 ([5]; Equid alphaherpesvirus 4, read-out: qPCR EC50 (µg/mL ± S.D)) [µg/mL] | CC50 [6] [µM] | Si (CC50/EC50, RTCA) [7]
CC(C)Nc1nc2cc(Cl)c(Cl)cc2n1[C@H]1O[C@@H](CO)[C@H](O)[C@@H]1O [Maribavir] | 33.80 | 34.21 | 32.99 | 45.42 |  |  |  |  |  |  |  | 
CCC(C)(C)C(=O)O[C@H]1C[C@@H](C)C=C2C=C[C@H](C)[C@H](CC[C@@H]3C[C@@H](O)CC(=O)O3)[C@H]21 [Simvastatin] | 34.65 | 32.56 | 24.99 | 20.58 |  |  |  |  |  |  |  | 
[H]/N=C(\N/C(=N/[H])Nc1ccc(Cl)cc1)NC(C)C [Proguanil hydrochloride] | 34.82 | 36.10 | 38.33 | 59.56 |  |  |  |  |  |  |  | 
CCCCCOC(=O)Nc1nc(=O)n([C@@H]2O[C@H](C)[C@@H](O)[C@H]2O)cc1F [Capecitabine] | 35.92 | 36.42 | 36.13 | 33.97 |  |  |  |  |  |  |  | 
O=c1[nH]cc(F)c(=O)[nH]1 [5-fluorouracil] | 39.89 | 31.41 | 31.13 | 36.75 |  |  |  |  |  |  |  | 
CC(C)OC(=O)OCOP(=O)(CO[C@H](C)Cn1cnc2c(N)ncnc21)OCOC(=O)OC(C)C [Tenofovir disoproxil] | 34.89 | 43.49 | 93.87 | 52.88 |  |  |  |  |  |  |  | 
CC(C)[C@H](N)C(=O)OCCOCn1cnc2c(=O)[nH]c(N)nc21 [Valaciclovir] | 33.27 | 28.12 | 27.99 | 42.38 |  |  |  |  |  |  |  | 
Sc1ncnc2nc[nH]c12 [6-mercaptopurine] | 39.53 | 37.02 | 28.97 | 27.72 |  |  |  |  |  |  |  | 
Nc1nc2nc[nH]c2c(=S)[nH]1 [6-thioguanine] | 37.89 | 38.05 | 34.04 | 29.32 |  |  |  |  |  |  |  | 
Cc1cn([C@H]2C=C[C@@H](CO)O2)c(=O)[nH]c1=O [Stavudine] | 37.85 | 32.94 | 32.23 | 30.20 |  |  |  |  |  |  |  | 
Nc1ccn(C[C@@H](CO)OCP(=O)(O)O)c(=O)n1 [Cidofovir] | 38.54 | 42.07 | 40.56 | 59.40 | > 50 | >6.26 | 12.6 ± 4.32 | 3.5 ± 1.21 | 7.99 ± 3.38 | 2.23 ± 0.94 | > 50 | >3.98
O=C(N/N=C/c1ccc(O)c(O)c1)c1cc2ccccc2cc1O [Dynasore] | 13.10 | 13.81 | 18.85 | 23.18 |  |  |  |  |  |  |  | 
Cc1ccc2c(=O)c3cccc(CC(=O)O)c3oc2c1C [DMXAA] | 36.50 | 37.99 | 41.23 | 60.10 |  |  |  |  |  |  |  | 
Nc1ccn([C@@H]2O[C@H](CO)[C@@H](O)[C@@H]2O)c(=O)n1 [Cytarabine] | 28.59 | 32.46 | 91.79 | 91.89 |  |  |  |  |  |  |  | 
C[C@@]1(O)[C@H](O)[C@@H](CO)O[C@H]1n1ccc(N)nc1=O [2′-C-methylcytidine] | 37.52 | 35.13 | 26.93 | 30.32 |  |  |  |  |  |  |  | 
Nc1nc(NC2CC2)c2ncn([C@H]3C=C[C@@H](CO)C3)c2n1 [Abacavir sulfate] | 38.16 | 32.21 | 31.76 | 32.99 |  |  |  |  |  |  |  | 
O=c1[nH]cnc2c1ncn2[C@H]1CC[C@@H](CO)O1 [Didanosine] | 37.77 | 36.23 | 29.27 | 38.91 |  |  |  |  |  |  |  | 
CC[C@H](C)C(=O)O[C@H]1C[C@H](O)C=C2C=C[C@H](C)[C@H](CC[C@@H](O)C[C@@H](O)CC(=O)O)[C@H]21 [Pravastatin] | 45.23 | 36.52 | 37.85 | 30.29 |  |  |  |  |  |  |  | 
